Data: ChEMBL document CHEMBL4706583, “2-Anilinoquinoline based arylamides as broad spectrum anticancer agents with B-RAF/C-RAF kinase inhibitory effects: Design, synthesis, in vitro cell-based and oncogenic kinase assessments” (Eur J Med Chem, 2020)

What was measured:
A549 = test: Growth inhibition of human A549 cells measured after 48 hrs by SRB assay; format: functional
A498 = test: Growth inhibition of human A498 cells measured after 48 hrs by SRB assay; format: functional
NCI-H322M = test: Growth inhibition of human NCI-H322M cells measured after 48 hrs by SRB assay; format: functional
RPMI-8226 = test: Growth inhibition of human RPMI-8226 cells measured after 48 hrs by SRB assay; format: functional
BT-549 = test: Growth inhibition of human BT-549 cells measured after 48 hrs by SRB assay; format: functional
PC-3 = test: Growth inhibition of human PC-3 cells measured after 48 hrs by SRB assay; format: functional
HCT-15 = test: Growth inhibition of human HCT-15 cells measured after 48 hrs by SRB assay; format: functional
HL-60(TB) = test: Growth inhibition of human HL-60(TB) cells measured after 48 hrs by SRB assay; format: functional
UACC-257 = test: Growth inhibition of human UACC-257 cells measured after 48 hrs by SRB assay; format: functional
SK-MEL-2 = test: Growth inhibition of human SK-MEL-2 cells measured after 48 hrs by SRB assay; format: functional
SK-OV-3 = test: Growth inhibition of human SK-OV-3 cells measured after 48 hrs by SRB assay; format: functional
DU-145 = test: Growth inhibition of human DU-145 cells measured after 48 hrs by SRB assay; format: functional
SK-MEL-28 = test: Growth inhibition of human SK-MEL-28 cells measured after 48 hrs by SRB assay; format: functional
UACC-62 = test: Growth inhibition of human UACC-62 cells measured after 48 hrs by SRB assay; format: functional
COLO 205 = test: Growth inhibition of human COLO 205 cells measured after 48 hrs by SRB assay; format: functional
HT-29 = test: Growth inhibition of human HT-29 cells measured after 48 hrs by SRB assay; format: functional
SW-620 = test: Growth inhibition of human SW-620 cells measured after 48 hrs by SRB assay; format: functional
M14 = test: Growth inhibition of human M14 cells measured after 48 hrs by SRB assay; format: functional
MOLT-4 = test: Growth inhibition of human MOLT-4 cells measured after 48 hrs by SRB assay; format: functional
CCRF-CEM = test: Growth inhibition of human CCRF-CEM cells measured after 48 hrs by SRB assay; format: functional
K562 = test: Growth inhibition of human K562 cells measured after 48 hrs by SRB assay; format: functional
T47D = test: Growth inhibition of human T47D cells measured after 48 hrs by SRB assay; format: functional
SN12C = test: Growth inhibition of human SN12C cells measured after 48 hrs by SRB assay; format: functional
MCF7 = test: Growth inhibition of human MCF7 cells measured after 48 hrs by SRB assay; format: functional
Malme-3M = test: Growth inhibition of human Malme-3M cells measured after 48 hrs by SRB assay; format: functional
NCI/ADR-RES = test: Growth inhibition of human NCI/ADR-RES cells measured after 48 hrs by SRB assay; format: functional
KM12 = test: Growth inhibition of human KM12 cells measured after 48 hrs by SRB assay; format: functional
OVCAR-4 = test: Growth inhibition of human OVCAR-4 cells measured after 48 hrs by SRB assay; format: functional
HOP-92 = test: Growth inhibition of human HOP-92 cells measured after 48 hrs by SRB assay; format: functional
MDA-MB-231 = test: Growth inhibition of human MDA-MB-231 cells measured after 48 hrs by SRB assay; format: functional
NCI-H226 = test: Growth inhibition of human NCI-H226 cells measured after 48 hrs by SRB assay; format: functional
HCT-116 = test: Growth inhibition of human HCT-116 cells measured after 48 hrs by SRB assay; format: functional
MDA-MB-435 = test: Growth inhibition of human MDA-MB-435 cells measured after 48 hrs by SRB assay; format: functional
NCI-H460 = test: Growth inhibition of human NCI-H460 cells measured after 48 hrs by SRB assay; format: functional
HOP-62 = test: Growth inhibition of human HOP-62 cells measured after 48 hrs by SRB assay; format: functional
SF-539 = test: Growth inhibition of human SF-539 cells measured after 48 hrs by SRB assay; format: functional
786-0 = test: Growth inhibition of human 786-0 cells measured after 48 hrs by SRB assay; format: functional
HCC 2998 = test: Growth inhibition of human HCC 2998 cells measured after 48 hrs by SRB assay; format: functional
IGROV-1 = test: Growth inhibition of human IGROV-1 cells measured after 48 hrs by SRB assay; format: functional
Hs-578T = test: Growth inhibition of human Hs-578T cells measured after 48 hrs by SRB assay; format: functional
OVCAR-8 = test: Growth inhibition of human OVCAR-8 cells measured after 48 hrs by SRB assay; format: functional
OVCAR-5 = test: Growth inhibition of human OVCAR-5 cells measured after 48 hrs by SRB assay; format: functional
NCI-H522 = test: Growth inhibition of human NCI-H522 cells measured after 48 hrs by SRB assay; format: functional
U-251 = test: Growth inhibition of human U-251 cells measured after 48 hrs by SRB assay; format: functional
ACHN = test: Growth inhibition of human ACHN cells measured after 48 hrs by SRB assay; format: functional
TK-10 = test: Growth inhibition of human TK-10 cells measured after 48 hrs by SRB assay; format: functional
UO-31 = test: Growth inhibition of human UO-31 cells measured after 48 hrs by SRB assay; format: functional
SNB-19 = test: Growth inhibition of human SNB-19 cells measured after 48 hrs by SRB assay; format: functional
SF-295 = test: Growth inhibition of human SF-295 cells measured after 48 hrs by SRB assay; format: functional
SR = test: Growth inhibition of human SR cells measured after 48 hrs by SRB assay; format: functional
SK-MEL-5 = test: Growth inhibition of human SK-MEL-5 cells measured after 48 hrs by SRB assay; format: functional
SNB-75 = test: Growth inhibition of human SNB-75 cells measured after 48 hrs by SRB assay; format: functional
RXF 393 = test: Growth inhibition of human RXF 393 cells measured after 48 hrs by SRB assay; format: functional
CAKI-1 = test: Growth inhibition of human CAKI-1 cells measured after 48 hrs by SRB assay; format: functional
OVCAR-3 = test: Growth inhibition of human OVCAR-3 cells measured after 48 hrs by SRB assay; format: functional
EKVX = test: Growth inhibition of human EKVX cells measured after 48 hrs by SRB assay; format: functional
NCI-H23 = test: Growth inhibition of human NCI-H23 cells measured after 48 hrs by SRB assay; format: functional
LOX IMVI = test: Growth inhibition of human LOX IMVI cells measured after 48 hrs by SRB assay; format: functional
[1] = biological target: Serine/threonine-protein kinase B-raf (Homo sapiens, UniProt P15056); test: Inhibition of human BRAF at 10 uM using MEK1 (K97R) as substrate in presence of [gamma-33P]ATP by scintillation counting method relative to control
Chain of Serine/threonine-protein kinase B-raf (P15056 whole entry): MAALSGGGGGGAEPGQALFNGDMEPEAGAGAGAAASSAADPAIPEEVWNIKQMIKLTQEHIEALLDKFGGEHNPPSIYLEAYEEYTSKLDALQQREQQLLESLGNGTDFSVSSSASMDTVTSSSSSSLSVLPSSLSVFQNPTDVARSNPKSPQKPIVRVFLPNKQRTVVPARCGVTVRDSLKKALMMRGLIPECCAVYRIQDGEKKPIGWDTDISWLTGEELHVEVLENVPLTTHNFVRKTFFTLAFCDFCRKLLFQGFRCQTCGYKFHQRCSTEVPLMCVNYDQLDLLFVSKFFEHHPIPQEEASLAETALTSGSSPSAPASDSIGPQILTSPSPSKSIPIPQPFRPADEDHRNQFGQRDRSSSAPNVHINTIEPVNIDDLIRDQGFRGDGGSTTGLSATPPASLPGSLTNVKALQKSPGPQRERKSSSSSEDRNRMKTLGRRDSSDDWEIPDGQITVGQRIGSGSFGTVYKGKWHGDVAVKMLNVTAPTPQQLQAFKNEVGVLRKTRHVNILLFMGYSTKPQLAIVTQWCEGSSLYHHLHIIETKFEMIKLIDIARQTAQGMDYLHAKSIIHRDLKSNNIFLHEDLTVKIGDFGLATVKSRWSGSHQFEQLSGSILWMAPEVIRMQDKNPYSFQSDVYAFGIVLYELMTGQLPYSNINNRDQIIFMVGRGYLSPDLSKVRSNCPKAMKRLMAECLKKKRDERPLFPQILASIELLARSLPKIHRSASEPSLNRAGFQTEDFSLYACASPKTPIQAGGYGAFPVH

[2] = biological target: RAF proto-oncogene serine/threonine-protein kinase (Homo sapiens, UniProt P04049); test: Inhibition of human CRAF at 10 uM using MEK1 (K97R) as substrate in presence of [gamma-33P]ATP by scintillation counting method relative to control
Chain of RAF proto-oncogene serine/threonine-protein kinase (P04049 whole entry): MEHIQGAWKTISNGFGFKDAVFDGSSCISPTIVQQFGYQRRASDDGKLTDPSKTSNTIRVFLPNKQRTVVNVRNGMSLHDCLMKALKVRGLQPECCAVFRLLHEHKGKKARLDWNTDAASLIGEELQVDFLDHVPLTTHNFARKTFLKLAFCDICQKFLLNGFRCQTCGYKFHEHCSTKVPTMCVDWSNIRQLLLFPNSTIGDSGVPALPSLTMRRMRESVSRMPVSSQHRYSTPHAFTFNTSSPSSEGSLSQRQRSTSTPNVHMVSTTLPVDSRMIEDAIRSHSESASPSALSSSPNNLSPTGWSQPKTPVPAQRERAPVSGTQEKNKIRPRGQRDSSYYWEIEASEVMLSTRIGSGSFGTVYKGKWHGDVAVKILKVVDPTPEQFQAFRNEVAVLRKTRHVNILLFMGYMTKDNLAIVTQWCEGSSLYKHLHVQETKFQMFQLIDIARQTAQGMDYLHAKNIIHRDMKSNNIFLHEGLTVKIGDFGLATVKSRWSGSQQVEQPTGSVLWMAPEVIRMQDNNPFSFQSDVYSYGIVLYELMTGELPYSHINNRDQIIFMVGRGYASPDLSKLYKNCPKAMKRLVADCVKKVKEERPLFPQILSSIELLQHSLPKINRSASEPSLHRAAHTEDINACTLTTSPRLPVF

[3] = system: Serine/threonine-protein kinase B-raf (Homo sapiens), P15056 [V600E]; test: Inhibition of human BRAF V600E mutant at 10 uM using MEK1 (K97R) as substrate in presence of [gamma-33P]ATP by scintillation counting method relative to control
Chain of Serine/threonine-protein kinase B-raf (Homo sapiens), P15056 [V600E] (P15056 whole entry V600E): as the sequence (P15056 whole entry) above, with V600E counted along it

Question: `Cc1ccc(NC(=O)c2ccc(CN3CCN(C)CC3)cc2)cc1Nc1nccc(-c2cccnc2)n1` [IMATINIB] was tested. Which GI50 (A549) did it give?
Answer: 24.5 µM

Question: And the GI50 (A498)?
Answer: 22 µM

Question: And the GI50 (NCI-H322M)?
Answer: 22.8 µM

Question: What about the GI50 (RPMI-8226) of the same compound?
Answer: 6.05 µM

Question: What about the GI50 (BT-549) of the same compound?
Answer: 16.1 µM

Question: And the GI50 (PC-3)?
Answer: 21.4 µM

Question: And the GI50 (HCT-15)?
Answer: 19.9 µM

Question: And the GI50 (HL-60(TB))?
Answer: 13.5 µM

Question: What about the GI50 (UACC-257) of the same compound?
Answer: 21.1 µM

Question: And the GI50 (SK-MEL-2)?
Answer: 25 µM

Question: What about the GI50 (SK-OV-3) of the same compound?
Answer: 28.9 µM

Question: And the GI50 (DU-145)?
Answer: 18.8 µM

Question: What about the GI50 (SK-MEL-28) of the same compound?
Answer: 14.6 µM

Question: And the GI50 (UACC-62)?
Answer: 19 µM

Question: And the GI50 (COLO 205)?
Answer: 17.6 µM

Question: And the GI50 (HT-29)?
Answer: 3.97 µM

Question: What about the GI50 (SW-620) of the same compound?
Answer: 23.4 µM

Question: And the GI50 (M14)?
Answer: 19.3 µM

Question: And the GI50 (MOLT-4)?
Answer: 5.13 µM

Question: And the GI50 (CCRF-CEM)?
Answer: 17 µM

Question: And the GI50 (K562)?
Answer: 0.02 µM

Question: And the GI50 (T47D)?
Answer: 19.9 µM

Question: And the GI50 (SN12C)?
Answer: 33.2 µM

Question: And the GI50 (MCF7)?
Answer: 18.2 µM

Question: What about the GI50 (Malme-3M) of the same compound?
Answer: 16.3 µM

Question: What about the GI50 (NCI/ADR-RES) of the same compound?
Answer: 23 µM

Question: What about the GI50 (KM12) of the same compound?
Answer: 18.8 µM

Question: And the GI50 (OVCAR-4)?
Answer: 20 µM

Question: What about the GI50 (HOP-92) of the same compound?
Answer: 13.3 µM

Question: What about the GI50 (MDA-MB-231) of the same compound?
Answer: 18.7 µM

Question: What about the GI50 (NCI-H226) of the same compound?
Answer: 18.1 µM

Question: And the GI50 (HCT-116)?
Answer: 12.6 µM

Question: What about the GI50 (MDA-MB-435) of the same compound?
Answer: 17.9 µM

Question: What about the GI50 (NCI-H460) of the same compound?
Answer: 16.2 µM

Question: And the GI50 (HOP-62)?
Answer: 21.5 µM

Question: And the GI50 (SF-539)?
Answer: 10.6 µM

Question: And the GI50 (786-0)?
Answer: 16 µM

Question: And the GI50 (HCC 2998)?
Answer: 21.2 µM

Question: What about the GI50 (IGROV-1) of the same compound?
Answer: 21.2 µM

Question: And the GI50 (Hs-578T)?
Answer: 14.6 µM

Question: What about the GI50 (OVCAR-8) of the same compound?
Answer: 27.7 µM

Question: And the GI50 (OVCAR-5)?
Answer: 0.58 µM

Question: What about the GI50 (NCI-H522) of the same compound?
Answer: 16.4 µM

Question: What about the GI50 (U-251) of the same compound?
Answer: 18 µM

Question: What about the GI50 (ACHN) of the same compound?
Answer: 25.2 µM

Question: And the GI50 (TK-10)?
Answer: 26.9 µM

Question: And the GI50 (UO-31)?
Answer: 22.3 µM

Question: And the GI50 (SNB-19)?
Answer: 38.6 µM

Question: And the GI50 (SF-295)?
Answer: 19.8 µM

Question: What about the GI50 (SR) of the same compound?
Answer: 7.14 µM

Question: And the GI50 (SK-MEL-5)?
Answer: 12.1 µM

Question: And the GI50 (SNB-75)?
Answer: 20.3 µM

Question: What about the GI50 (RXF 393) of the same compound?
Answer: 15.1 µM

Question: And the GI50 (CAKI-1)?
Answer: 34 µM

Question: What about the GI50 (OVCAR-3) of the same compound?
Answer: 34.2 µM

Question: What about the GI50 (EKVX) of the same compound?
Answer: 26.2 µM

Question: And the GI50 (NCI-H23)?
Answer: 15 µM

Question: And the GI50 (LOX IMVI)?
Answer: 18.1 µM

Question: Which GI50 (A498) does the source give for `COc1cc2cc(Oc3ccc(NC(=O)c4cc(C(F)(F)F)cc(C(F)(F)F)c4)cc3)c(C)nc2cc1OC` here?
Answer: 1.13 µM

Question: What about the GI50 (RPMI-8226) of the same compound?
Answer: 1.57 µM

Question: What about the GI50 (BT-549) of the same compound?
Answer: 3.02 µM

Question: And the GI50 (PC-3)?
Answer: 1.66 µM

Question: What about the inhibition [1] of the same compound?
Answer: < 47%

Question: What about the GI50 (OVCAR-4) of the same compound?
Answer: 4.53 µM

Question: What about the GI50 (HOP-92) of the same compound?
Answer: 1.82 µM

Question: And the GI50 (HCT-116)?
Answer: 1.56 µM

Question: And the inhibition [2]?
Answer: 76.7%

Question: And the GI50 (SF-295)?
Answer: 1.64 µM

Question: And the GI50 (SK-MEL-5)?
Answer: 2.76 µM

Question: What about the inhibition [3] of the same compound?
Answer: < 47%
